Measurements taken from patent US20230099344A1, “COMPOUNDS AND METHODS FOR THE TARGETED DEGRADATION OF IRAK-4” (Arvinas Operations, Inc., priority 2021, published 2023).
pIC50: −log10 of the molar value.

Key:
Assay type in all cases: cell-based
IRAK-4 = biological target: T1, IRAK-4 (Homo sapiens, UniProt Q9NWZ3); assay: IRAK-4 ELISA, PBMC degradation; design: endogenous in cells; host or cells: PBMC; details: treated overnight
T1 sequence (Q9NWZ3 1-460): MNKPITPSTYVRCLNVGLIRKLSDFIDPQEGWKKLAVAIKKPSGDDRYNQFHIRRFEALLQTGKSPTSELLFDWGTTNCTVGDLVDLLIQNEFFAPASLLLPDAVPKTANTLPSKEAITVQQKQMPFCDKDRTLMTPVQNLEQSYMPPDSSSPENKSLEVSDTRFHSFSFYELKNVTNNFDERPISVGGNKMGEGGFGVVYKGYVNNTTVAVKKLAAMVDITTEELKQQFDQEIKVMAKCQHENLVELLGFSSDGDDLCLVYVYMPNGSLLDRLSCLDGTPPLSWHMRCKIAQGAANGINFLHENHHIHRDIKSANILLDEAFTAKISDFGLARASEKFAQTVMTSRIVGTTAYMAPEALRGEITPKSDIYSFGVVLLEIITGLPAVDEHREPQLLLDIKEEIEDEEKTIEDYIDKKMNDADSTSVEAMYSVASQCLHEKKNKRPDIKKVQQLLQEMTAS
How it was run: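 Overnight compound treatment, started on the day of plating, of OCI-Ly10 (1×10^6/ml) and PBMC (2×10^6/ml) cultures. Lysates are collected and IRAK-4 content is read by sandwich ELISA.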

IL6 [1] = assay: R848 stimulated IL6 inhibition assay in PBMC; details: human PBMCs, R848 stimulation, compound overnight, IL6 by MSD after 24 hrs; for Dmax: Homo sapiens, 24 h, read-out: R848 stim IL6 inhibition Dmax; for pIC50: read-out: R848 stim IL6 inhibition IC50
How it was run: (§1)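 Primary human PBMCs plated at 2.0×10^6 cells/mL are incubated with compound overnight. Stimulation follows using the donor's EC50 concentration of agonist. MSD detects secreted IL6/IL8 at 24 hrs.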

IL6 [2] = assay: LPS stimulated IL6 inhibition assay in PBMC; details: human PBMCs, LPS stimulation, compound overnight, IL6 by MSD after 24 hrs; for Dmax: read-out: LPS Stim IL6 inhibition Dmax; for pIC50: read-out: LPS stim IL6 inhibition IC50
How it was run: as §1

| Compound | DC50 (IRAK-4) | Dmax (IRAK-4) | PBMC DC90 (IRAK-4) | Dmax (IL6 [1]; PBMC) | pIC50 (IL6 [1]; PBMC) | Dmax (IL6 [2]; Homo sapiens, PBMC, 24 h) | pIC50 (IL6 [2]; Homo sapiens, PBMC, 24 h) | PBMC Dmax (IRAK-4) | R848 stim IL6 inhibition Dmax (IL6 [1]) | pIC50 (IL6 [1]) | LPS Stim IL6 inhibition Dmax (IL6 [2]) | pIC50 (IL6 [2]) |
| --- | --- | --- | --- | --- | --- | --- | --- | --- | --- | --- | --- | --- |
| O=C1CCC(N2C(=O)c3cccc(N4CC5(CCCN(C6CCC(n7cc8cc(NC(=O)c9cnn%10cccnc9%10)c(OCC9CC9)cc8n7)CC6)C5)C4)c3C2=O)C(=O)N1 (stereo not drawn) [Example 419] | 1 to 5 nM | 70 to 80% | A (A represents a DC90 value <10.0 nM) | 80 to 90% | 7.30 to 8.00 | 70 to 80% | > 8.00 | – | – | – | – | – |
| O=C1CCC(N2C(=O)c3ccc(N4CCCC5(CN(CCN6CCC(n7cc8cc(NC(=O)c9cnn%10cccnc9%10)c(OCC9CC9)cc8n7)CC6)C5)C4)cc3C2=O)C(=O)N1 (stereo not drawn) [Example 248] | 1 to 5 nM | < 70% | A (A represents a DC90 value <10.0 nM) | ≥ 90% | 7.30 to 8.00 | < 70% | 7.30 to 8.00 | – | – | – | – | – |
| O=C1CCC(N2Cc3c(ccc(N4CCC(CN5CCC(n6cc7cc(NC(=O)c8cnn9cccnc89)c(OCC8CC8)cc7n6)CC5)CC4)c3F)C2=O)C(=O)N1 (stereo not drawn) [Example 153] | < 1 nM | 80 to 90% | A (A represents a DC90 value <10.0 nM) | 80 to 90% | > 8.00 | ≥ 90% | > 8.00 | – | – | – | – | – |
| CC(C)Oc1cc2c(cc1NC(=O)c1cnn3cccnc13)CN(C1CCN(CC3(O)CCN(c4ccc5c(c4)C(=O)N(C4CCC(=O)NC4=O)C5=O)CC3)CC1)C2=O (stereo not drawn) [Example 109] | < 1 nM | ≥ 90% | A (A represents a DC90 value <10.0 nM) | ≥ 90% | 7.30 to 8.00 | 70 to 80% | 7.30 to 8.00 | – | – | – | – | – |
| CN(CCN1CCN(c2ccc3c(c2)C(=O)N(C2CCC(=O)NC2=O)C3=O)CC1)[C@H]1CC[C@H](n2cc3cc(NC(=O)c4cnn5cccnc45)c(OCC4CC4)cc3n2)CC1 (stereo partly drawn) [Example 359] | < 1 nM | 80 to 90% | A (A represents a DC90 value <10.0 nM) | ≥ 90% | > 8.00 | 80 to 90% | > 8.00 | – | – | – | – | – |
| O=C1CCC(N2Cc3cc(N4CCC(CN5CCC(n6cc7cc(NC(=O)c8cnn9cccnc89)c(N8CCN(CC(F)F)CC8)cc7n6)CC5)CC4)ccc3C2=O)C(=O)N1 (stereo not drawn) [Example 157] | < 1 nM | ≥ 90% | A (A represents a DC90 value <10.0 nM) | ≥ 90% | 7.30 to 8.00 | 70 to 80% | 7.30 to 8.00 | – | – | – | – | – |
| COc1c(N2CC(F)(CN3CCC(n4cc5cc(NC(=O)c6cnn7cccnc67)c(OCC6CC6)cc5n4)CC3)C2)ccc2c1C(=O)N(C1CCC(=O)NC1=O)C2=O (stereo not drawn) [Example 246] | 5 to 10 nM | < 70% | B (B represents a DC90 value ≥10.0 nM and <25.0 nM) | ≥ 90% | > 8.00 | 70 to 80% | > 8.00 | – | – | – | – | – |
| CC1(CN2CCC(n3cc4cc(NC(=O)c5cnn6cccnc56)c(OCC5CC5)cc4n3)CC2)CN(c2cc3c(cc2F)C(=O)N(C2CCC(=O)NC2=O)C3=O)C1 (stereo not drawn) [Example 222] | ≥ 10 nM | 70 to 80% | D (D represents a DC90 value ≥50 nM) | ≥ 90% | 7.00 to 7.30 | 70 to 80% | 7.00 to 7.30 | – | – | – | – | – |
| CC(C)Oc1cc2c(cc1NC(=O)c1cnn3cccnc13)CN(C1CCN(CC3CCN(c4ccc5c(c4F)CN(C4CCC(=O)NC4=O)C5=O)CC3)CC1)C2=O (stereo not drawn) [Example 41] | < 1 nM | 80 to 90% | A (A represents a DC90 value <10.0 nM) | ≥ 90% | > 8.00 | 70 to 80% | 7.30 to 8.00 | – | – | – | – | – |
| O=C1CCC(N2Cc3ccc(N4CCN(C[C@H]5CC[C@H](n6cc7cc(NC(=O)c8cnn9cccnc89)c(OCC(F)F)cc7n6)CC5)CC4)cc3C2=O)C(=O)N1 (stereo partly drawn) [Example 433] | < 1 nM | ≥ 90% | A (A represents a DC90 value <10.0 nM) | ≥ 90% | > 8.00 | 80 to 90% | > 8.00 | – | – | – | – | – |
| CC(C)Oc1cc2c(cc1NC(=O)c1cnn3cccnc13)CN(C1CCN(CC3CCN(c4ccc5c(c4)C(=O)N([C@@H]4CCC(=O)NC4=O)C5=O)CC3)CC1)C2=O [Example 47] | 1 to 5 nM | ≥ 90% | A (A represents a DC90 value <10.0 nM) | 80 to 90% | 7.30 to 8.00 | 80 to 90% | 7.30 to 8.00 | – | – | – | – | – |
| O=C1CCC(N2C(=O)c3ccc(N4CCCC5(C4)CN([C@H]4CC[C@H](n6cc7cc(NC(=O)c8cnn9cccnc89)c(OCC8CC8)cc7n6)CC4)C5)cc3C2=O)C(=O)N1 (stereo partly drawn) [Example 418] | < 1 nM | 80 to 90% | A (A represents a DC90 value <10.0 nM) | ≥ 90% | > 8.00 | 80 to 90% | 7.30 to 8.00 | – | – | – | – | – |
| CC(C)Oc1nc2c(cc1NC(=O)c1cnn3cccnc13)CN(C1CCN(CC3CCN(c4ccc(C(=O)NC5CCC(=O)NC5=O)c(F)c4)CC3)CC1)C2=O (stereo not drawn) [Example 309] | 1 to 5 nM | ≥ 90% | B (B represents a DC90 value ≥10.0 nM and <25.0 nM) | 80 to 90% | 7.30 to 8.00 | < 70% | 7.30 to 8.00 | – | – | – | – | – |
| CC(C)Oc1cc2c(cc1NC(=O)c1cnn3cccnc13)CN(C1CCN(CC3(F)CN(c4ccc5c(c4)C(=O)N(C4CCC(=O)NC4=O)C5)C3)CC1)C2=O (stereo not drawn) [Example 106] | 1 to 5 nM | ≥ 90% | A (A represents a DC90 value <10.0 nM) | ≥ 90% | 7.30 to 8.00 | 80 to 90% | ≤ 7.00 | – | – | – | – | – |
| O=C1CCC(NC(=O)c2ccc(N3CCC(CN4CCC(N5Cc6cc(NC(=O)c7cnn8cccnc78)c(N7CCC(N8CCC8)CC7)cc6C5=O)CC4)CC3)cc2F)C(=O)N1 (stereo not drawn) [Example 310] | 1 to 5 nM | ≥ 90% | A (A represents a DC90 value <10.0 nM) | ≥ 90% | 7.00 to 7.30 | 70 to 80% | ≤ 7.00 | – | – | – | – | – |
| CN(C1CN(c2ccc3c(c2)CN(C2CCC(=O)NC2=O)C3=O)C1)[C@H]1CC[C@H](n2cc3cc(NC(=O)c4cnn5cccnc45)c(OCC(F)F)cc3n2)CC1 (stereo partly drawn) [Example 363] | < 1 nM | ≥ 90% | A (A represents a DC90 value <10.0 nM) | ≥ 90% | 7.30 to 8.00 | 70 to 80% | 7.30 to 8.00 | – | – | – | – | – |
| O=C1CCC(N2C(=O)c3ccc(N4CC(F)(CN5CCC(N6Cc7cc(NC(=O)c8cnn9cccnc89)c(N8CCC(N9CCC9)CC8)cc7C6=O)CC5)C4)cc3C2=O)C(=O)N1 (stereo not drawn) [Example 116] | 1 to 5 nM | ≥ 90% | B (B represents a DC90 value ≥10.0 nM and <25.0 nM) | ≥ 90% | > 8.00 | 80 to 90% | > 8.00 | – | – | – | – | – |
| O=C1CCC(N2C(=O)c3ccc(N4CCN(C[C@H]5CC[C@H](n6cc7cc(NC(=O)c8cnn9cccnc89)c(OCC8CC8)cc7n6)CC5)CC4)cc3C2=O)C(=O)N1 (stereo partly drawn) [Example 375] | 1 to 5 nM | ≥ 90% | A (A represents a DC90 value <10.0 nM) | ≥ 90% | 7.30 to 8.00 | 70 to 80% | > 8.00 | – | – | – | – | – |
| CCN(C1CN(c2ccc(C(=O)NC3CCC(=O)NC3=O)c(F)c2)C1)[C@H]1CC[C@H](n2cc3cc(NC(=O)c4cnn5cccnc45)c(OCC4CC4)cc3n2)CC1 (stereo partly drawn) [Example 369] | 1 to 5 nM | ≥ 90% | A (A represents a DC90 value <10.0 nM) | ≥ 90% | 7.30 to 8.00 | < 70% | 7.30 to 8.00 | – | – | – | – | – |
| CN(C1CN(c2ccc3c(c2F)CN(C2CCC(=O)NC2=O)C3=O)C1)[C@H]1CC[C@H](n2cc3cc(NC(=O)c4cnn5cccnc45)c(OCC(F)F)cc3n2)CC1 (stereo partly drawn) [Example 362] | < 1 nM | ≥ 90% | A (A represents a DC90 value <10.0 nM) | ≥ 90% | > 8.00 | 70 to 80% | 7.30 to 8.00 | – | – | – | – | – |
| O=C1CCC(N2Cc3cc(N4CCC(CN5CCC(n6cc7cc(NC(=O)c8cnn9cccnc89)c(OCC(F)F)cc7n6)CC5)CC4)ccc3C2=O)C(=O)N1 (stereo not drawn) [Example 156] | < 1 nM | – | A (A represents a DC90 value <10.0 nM) | – | – | – | – | A (A represents a Dmax value ≥90) | A (A represents a Ymax value ≥90) | > 8.00 | C (C represents a Ymax value ≥70 and <80) | > 8.00 |
